Read-outs that look alike come from different tables or passages of the source.
Assays:
Alg44 [1] = biological target: T1, Alg44 (Pseudomonas aeruginosa, UniProt Q9HY69); test: intact protein LC-MS adduct; type: binding
Alg44 [2] = biological target: T1, Alg44; test: intact protein LC-MS adduct; type: binding; remark: listed apart in the source

T1 sequence (Q9HY69 14-122): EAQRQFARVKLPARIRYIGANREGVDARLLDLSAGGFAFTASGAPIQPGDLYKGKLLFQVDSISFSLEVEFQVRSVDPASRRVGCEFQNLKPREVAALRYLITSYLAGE

Molecule	IC50 (Alg44 [1]) [µM]	IC50 (Alg44 [2]) [µM]
CCC1(C)Cc2ccccc2-c2nc3[nH][nH]c(=S)n3c(=O)c21 (centres unmarked) [compound 925]	58.1 ± 1.2	–
AC1LFHI9	–	63.5 ± 1.3

Source: PMC6295334 (ACS chemical biology, 2017)
